Read-outs that look alike come from different tables or passages of the source. Starred links: 1 amine or outer side, 2 acyl side, 3 side chain; linkers in the order of their positions; H or OH if unused. Positions of bridges follow the written chain, without caps; N, C: chain ends. Non-standard residues stand in square brackets, D forms with d. Residues, ends and D or L forms follow the SMILES beside them. Groups on a side chain read outwards from the residue. *: point of attachment. X4 = CN(C)C(=O)Cn1cc(-c2ccc(C[C@H](N[*:1])C(=O)[*:2])cc2)cn1; Phe(3-OCH2COOH) = N[C@@H](Cc1cccc(OCC(=O)O)c1)C(=O)O; Trp(1-Ph) = N[C@@H](Cc1cn(-c2ccccc2)c2ccccc12)C(=O)O; NMePhe(3-Ph) = CN[C@@H](Cc1cccc(-c2ccccc2)c1)C(=O)O; Phe(4-COOH) = N[C@@H](Cc1ccc(C(=O)O)cc1)C(=O)O; Trp(6-aza) = N[C@@H](Cc1c[nH]c2cnccc12)C(=O)O; NMePhe(4-Cl) = CN[C@@H](Cc1ccc(Cl)cc1)C(=O)O; Piperazinyl(4-CH2COOH) = O=C(O)CN1CCN(*)CC1; Piperidinyl(4-CH2COOH) = O=C(O)CC1CCN(*)CC1; Gly(decyl) = CCCCCCCCCC[C@H](N)C(=O)O; Gly(N(CH2)3COOH) = O=C(O)CCCNCC(=O)O; X1 = CCCCCCC[C@H](N[*:1])C(=O)[*:2]; NMeCha = CN[C@@H](CC1CCCCC1)C(=O)O; NMeF = CN[C@@H](Cc1ccccc1)C(=O)O; NMeE = CN[C@@H](CCC(=O)O)C(=O)O; Cha = N[C@@H](CC1CCCCC1)C(=O)O; Gly(N(CH2)3NH2) = NCCCNCC(=O)O; NMeA = CN[C@@H](C)C(=O)O; Dap = NC[C@H](N)C(=O)O; CO = O=C([*:1])[*:2]; Inp = O=C(O)C1CCNCC1; NPrGly = CCCNCC(=O)O; NEtG = CCNCC(=O)O; Sar = CNCC(=O)O
Legend:
GDF-11 = biological target: T1, GDF-11 (Homo sapiens, UniProt O95390); test: HepG2 reporter gene assay, Evaluation Procedure (2): 2-concentrations assay, GDF-11 inhibition; format: cell-based; settings: for inhibition: read-out: inhibition rate (GDF-11 inhibition assay)
T1 construct: purchased R&D systems 1958-GD-G8/CF
T1 sequence (O95390 299-407): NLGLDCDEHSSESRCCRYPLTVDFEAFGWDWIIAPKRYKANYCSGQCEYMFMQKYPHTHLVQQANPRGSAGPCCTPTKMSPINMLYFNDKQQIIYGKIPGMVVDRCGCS
Protocol: (§1) The pGL3(CAGA)12-luc plasmid, namely a pGL3 vector (E1751, Promega) having a luciferase gene inserted downstream of a promoter sequence with 12 CAGA repeats attached, was transfected into HepG2 cell line (HB-8065, ATCC). The culture of HepG2 cell line (HB-8065, ATCC) was performed as in the Evaluation Procedure (1).
(§2) Myostatin (788-G8/CF, R&D systems) or GDF-11 (1958-GD-G8/CF, R&D systems) was added at a final concentration of 10 ng/mL. […] At this time, blank wells, in which neither myostatin, GDF-11, nor each peptide was added, were also prepared and incubated in a CO2 incubator (37°C, 5% CO2) for 20 to 24 hours.
(§3) The medium containing the cells was removed, and a mixture containing PBS (14190144, Thermo) and a chromogenic substrate One-Glo Luciferase Assay System (E6120, Promega) at a ratio of 1:1 was added to each well at 100 µL/well. This was stirred with a plate shaker for 5 min and transferred to a 384-well plate (3570, Corning) at a volume of 20 µL/well.
(§4) The plate was centrifuged at 1,000 × g for 1 min and the luminescence signal (700 nm luminescence) was measured using a plate reader (Envision 2104, PerkinElmer). Based on the measurement results, the inhibition rate at each peptide concentration was calculated. […]

Myostatin = biological target: T2, Myostatin (Homo sapiens, UniProt O14793); test: HepG2 reporter gene assay, Evaluation Procedure (2): 2-concentrations assay, myostatin inhibition; format: cell-based
T2 construct: active myostatin (also called mature myostatin) is a homodimer consisting of two C-terminal growth factor domains; purchased R&D systems 788-G8/CF
T2 sequence (O14793 267-375): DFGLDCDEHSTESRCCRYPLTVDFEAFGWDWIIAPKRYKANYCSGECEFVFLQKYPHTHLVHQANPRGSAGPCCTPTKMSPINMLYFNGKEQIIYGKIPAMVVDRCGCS
Protocol: as §1, §2, §3, §4

[1] = HepG2, first GDF-11 column of Table 7-3/7-4, GDF-11 10 ng/mL, peptide at the lower of the 2 concentrations
[2] = HepG2, second GDF-11 column of Table 7-3/7-4, GDF-11 10 ng/mL, peptide at the higher of the 2 concentrations
[3] = Table 7-3/7-4, myostatin 10 ng/mL, peptide at the higher of the 2 concentrations, HepG2, read-out: inhibition rate (myostatin inhibition assay)
[4] = Table 7-3/7-4, myostatin 10 ng/mL, peptide at the lower of the 2 concentrations, HepG2, read-out: inhibition rate (myostatin inhibition assay)
[5] = HepG2, peptide 30nM, GDF-11 10 ng/mL, read-out: GDF11 Inhibition 30nM
[6] = HepG2, peptide 100nM, GDF-11 10 ng/mL, read-out: GDF11 Inhibition 100nM
[7] = peptide 30nM, Myostatin 10 ng/mL, HepG2, read-out: Myostatin Inhibition 30nM
[8] = peptide 100nM, Myostatin 10 ng/mL, HepG2, read-out: Myostatin Inhibition 100nM

Structure (SMILES) | inhibition (GDF-11; [1]) | inhibition (GDF-11; [2]) | inhibition at 0.1 µM (Myostatin; [3]) | inhibition at 0.03 µM (Myostatin; [4]) | inhibition at 0.03 µM (GDF-11; [5]) | inhibition at 0.1 µM (GDF-11; [6]) | inhibition at 0.03 µM (Myostatin; [7]) | inhibition at 0.1 µM (Myostatin; [8]) | further results
CCCCCCC[C@@H]1NC(=O)[C@H](Cc2ccccc2)N(C)C(=O)[C@H](CCCNC(=N)N)NC(=O)[C@H](Cc2ccc(C(=O)O)cc2)NC(=O)[C@H](Cc2cccc(OCC(=O)O)c2)NC(=O)CN(C)C(=O)[C@H]([C@@H](C)CC)NC(=O)[C@H](Cc2ccc(Cl)cc2)N(C)C(=O)[C@H](Cc2ccc(O)cc2)NC(=O)[C@H](Cc2c[nH]c3ccccc23)NC(=O)[C@H](C)NC(=O)[C@H](C)NC(=O)CSC[C@H](C(=O)N2CCN(CC(=O)O)CC2)NC(=O)[C@H](Cc2ccccc2)N(C)C(=O)[C@H](C)N(C)C1=O [Myostatin_99_v308] ({CH2CO}-AAWY[NMePhe(4-Cl)]I[Sar][Phe(3-OCH2COOH)][Phe(4-COOH)]R[NMeF][X1][NMeA][NMeF][dC]-{Piperazinyl(4-CH2COOH)}; thioether N-15) | 0% | 3% | 97% | 87% | – | – | – | – | –
CCCCCCC[C@@H]1NC(=O)[C@H](CC2CCCCC2)NC(=O)[C@H](CCCNC(=N)N)NC(=O)[C@H](Cc2ccc(C(=O)O)cc2)NC(=O)[C@H](CCCCNC(=O)N2CCN(CC(=O)O)CC2)NC(=O)[C@H]2CCCN2C(=O)[C@H]([C@@H](C)CC)NC(=O)[C@H](CC2CCCCC2)N(C)C(=O)[C@H](Cc2ccc(O)cc2)NC(=O)[C@H](Cc2ccc(-c3cnn(CC(=O)N(C)C)c3)cc2)NC(=O)[C@@H](CCC(=O)O)NC(=O)[C@H](C)NC(=O)CSC[C@H](C(=O)N2CCN(CC(=O)O)CC2)NC(=O)[C@H](Cc2ccccc2)N(C)C(=O)[C@H](C)N(C)C1=O [Myostatin_99_v256] ({CH2CO}-A[dE][X4]Y[NMeCha]I[dP]K([CO-Piperazinyl(4-CH2COOH)])[Phe(4-COOH)]R[Cha][X1][NMeA][NMeF][dC]-{Piperazinyl(4-CH2COOH)}; thioether N-15) | – | – | – | – | – | – | – | – | inhibition at 0.03 µM (GDF-11; HepG2, read-out: GDF11 Inhibition 30nM, peptide 30nM, GDF-11 10 ng/mL): 0%; inhibition at 0.1 µM (GDF-11; HepG2, read-out: GDF11 Inhibition 100nM, peptide 100nM, GDF-11 10 ng/mL): 4%; inhibition at 0.03 µM (Myostatin; HepG2, read-out: Myostatin Inhibition 30nM): 57%; inhibition at 0.1 µM (Myostatin; HepG2, read-out: Myostatin Inhibition 100nM): 88%
CC[C@H](C)[C@@H]1NC(=O)[C@H](Cc2ccccc2)N(C)C(=O)[C@H](Cc2ccc(O)cc2)NC(=O)[C@H](Cc2c[nH]c3ccccc23)NC(=O)[C@H](CN)NC(=O)CN(CCCN)C(=O)CSC[C@H](C(N)=O)NC(=O)[C@H](Cc2ccccc2)N(C)C(=O)[C@H](C)N(C)C(=O)[C@H](CC(C)C)NC(=O)[C@H](Cc2ccccc2)N(C)C(=O)[C@H](CCCNC(=N)N)NC(=O)[C@H](Cc2ccc(O)cc2)NC(=O)[C@H](Cc2ccc(O)cc2)NC(=O)CN(C)C1=O [Myostatin_99_Variant_13] ({CH2CO}-[Gly(N(CH2)3NH2)][Dap]WY[NMeF]I[Sar]YYR[NMeF]L[NMeA][NMeF][dC]-NH2; thioether N-15) | – | – | – | – | 8% | 12% | 51% | 76% | –
CCCCCCCCCC[C@@H]1NC(=O)[C@H](Cc2ccccc2)N(C)C(=O)[C@H](CCCNC(=N)N)NC(=O)[C@H](Cc2ccc(C(=O)O)cc2)NC(=O)[C@H](Cc2cccc(OCC(=O)O)c2)NC(=O)CN(C)C(=O)[C@H]([C@@H](C)CC)NC(=O)[C@H](Cc2ccccc2)N(C)C(=O)[C@H](Cc2ccc(O)cc2)NC(=O)[C@H](Cc2c[nH]c3ccccc23)NC(=O)[C@H](C)NC(=O)[C@H](CCCCNC(=O)N2CCN(CC(=O)O)CC2)NC(=O)CSC[C@H](C(=O)N2CCN(CC(=O)O)CC2)NC(=O)[C@H](Cc2ccccc2)N(C)C(=O)[C@H](C)N(C)C1=O [Myostatin_99_v263] ({CH2CO}-K([CO-Piperazinyl(4-CH2COOH)])AWY[NMeF]I[Sar][Phe(3-OCH2COOH)][Phe(4-COOH)]R[NMeF][Gly(decyl)][NMeA][NMeF][dC]-{Piperazinyl(4-CH2COOH)}; thioether N-15) | – | – | – | – | 8% | 56% | 100% | 100% | –
CCCCCCC[C@@H]1NC(=O)[C@H](Cc2ccccc2)N(C)C(=O)[C@H](CCCNC(=N)N)NC(=O)[C@H](Cc2ccc(C(=O)O)cc2)NC(=O)[C@H](CCCCNC(=O)N2CCN(CC(=O)O)CC2)NC(=O)CN(CC)C(=O)[C@H]([C@@H](C)CC)NC(=O)[C@H](CC2CCCCC2)N(C)C(=O)[C@H](Cc2ccc(O)cc2)NC(=O)[C@H](Cc2c[nH]c3ccccc23)NC(=O)[C@@H](CCC(=O)O)NC(=O)[C@H](C)NC(=O)CSC[C@H](C(=O)N2CCN(CC(=O)O)CC2)NC(=O)[C@H](Cc2ccccc2)N(C)C(=O)[C@H](C)N(C)C1=O [Myostatin_99_v258] ({CH2CO}-A[dE]WY[NMeCha]I[NEtG]K([CO-Piperazinyl(4-CH2COOH)])[Phe(4-COOH)]R[NMeF][X1][NMeA][NMeF][dC]-{Piperazinyl(4-CH2COOH)}; thioether N-15) | – | – | – | – | 0% | 0% | 21% | 61% | –
CCCCCCC[C@@H]1NC(=O)[C@H](Cc2ccccc2)N(C)C(=O)[C@H](CCCNC(=N)N)NC(=O)[C@H](Cc2ccc(C(=O)O)cc2)NC(=O)[C@H](Cc2cccc(OCC(=O)O)c2)NC(=O)[C@H](C)N(C)C(=O)[C@H]([C@@H](C)CC)NC(=O)[C@H](Cc2ccccc2)N(C)C(=O)[C@H](Cc2ccc(O)cc2)NC(=O)[C@H](Cc2cn(-c3ccccc3)c3ccccc23)NC(=O)[C@H](C)NC(=O)[C@H](C)NC(=O)CSC[C@H](C(=O)N2CCN(CC(=O)O)CC2)NC(=O)[C@H](Cc2cccc(-c3ccccc3)c2)N(C)C(=O)[C@H](CCC(=O)O)N(C)C1=O [Myostatin_99_v330] ({CH2CO}-AA[Trp(1-Ph)]Y[NMeF]I[NMeA][Phe(3-OCH2COOH)][Phe(4-COOH)]R[NMeF][X1][NMeE][NMePhe(3-Ph)][dC]-{Piperazinyl(4-CH2COOH)}; thioether N-15) | 0% | 0% | 100% | 100% | – | – | – | – | –
CCCCCCC[C@@H]1NC(=O)[C@H](Cc2ccccc2)N(C)C(=O)[C@H](CCCNC(=N)N)NC(=O)[C@H](Cc2ccc(C(=O)O)cc2)NC(=O)[C@H](Cc2cccc(OCC(=O)O)c2)NC(=O)[C@H](C)N(C)C(=O)[C@H]([C@@H](C)CC)NC(=O)[C@H](Cc2ccccc2)N(C)C(=O)[C@H](Cc2ccc(O)cc2)NC(=O)[C@H](Cc2c[nH]c3ccccc23)NC(=O)[C@H](C)NC(=O)CN(CCCC(=O)O)C(=O)CSC[C@H](C(=O)N2CCC(C(N)=O)CC2)NC(=O)[C@H](Cc2ccccc2)N(C)C(=O)[C@H](C)N(C)C1=O [Myostatin_99_v433] ({CH2CO}-[Gly(N(CH2)3COOH)]AWY[NMeF]I[NMeA][Phe(3-OCH2COOH)][Phe(4-COOH)]R[NMeF][X1][NMeA][NMeF][dC][Inp]-NH2; thioether N-15) | 0% | 0% | 100% | 100% | – | – | – | – | –
CCCCCCCCCC[C@@H]1NC(=O)[C@H](Cc2ccccc2)N(C)C(=O)[C@H](CCCNC(=N)N)NC(=O)[C@H](Cc2ccc(C(=O)O)cc2)NC(=O)[C@H](Cc2cccc(OCC(=O)O)c2)NC(=O)CN(CCC)C(=O)[C@H]([C@@H](C)CC)NC(=O)[C@H](Cc2ccccc2)N(C)C(=O)[C@H](Cc2ccc(O)cc2)NC(=O)[C@H](Cc2c[nH]c3cnccc23)NC(=O)[C@H](C)NC(=O)[C@H](C)NC(=O)CSC[C@H](C(=O)N2CCC(CC(=O)O)CC2)NC(=O)[C@H](Cc2ccccc2)N(C)C(=O)[C@H](CCC(=O)O)N(C)C1=O [Myostatin_99_v337] ({CH2CO}-AA[Trp(6-aza)]Y[NMeF]I[NPrGly][Phe(3-OCH2COOH)][Phe(4-COOH)]R[NMeF][Gly(decyl)][NMeE][NMeF][dC]-{Piperidinyl(4-CH2COOH)}; thioether N-15) | 0% | 0% | 96% | 82% | – | – | – | – | –

Source: patent publication EP4786487A1, “PEPTIDE” (Peptidream Inc, priority 2023, dated 2025)
